Paper PMC8619434 (Viruses, 2021)
Converted amounts (≈) assume the structure as drawn. Counter-ions that a name gives are not always drawn. Like-named read-outs stand apart in the source and are kept apart here. *1 amine or outer side, *2 acyl side, *3 side chain or, on linkers, in order; H or OH if unused. Where a SMILES comes first, the peptide text is derived from it. Bridges are numbered along the chain shown (N, C = ends). [ ]: non-standard residue; d: D form. The star is where a group is joined. pTerphenylCO(4''-OnC5H11) = CCCCCOc1ccc(-c2ccc(-c3ccc(C(=O)*)cc3)cc2)cc1; Orn(4R-OH,5R-OH) = O=C([C@H](C[C@@H](O)[C@@H](O)N[*:3])N[*:1])[*:2]; hTyr(3S-OH,4S-OH) = N[C@H](C(=O)O)[C@H](O)[C@@H](O)c1ccc(O)cc1; Pro(3S-OH,4S-Me) = C[C@H]1CN[C@H](C(=O)O)[C@H]1O; Hyp = O=C(O)[C@@H]1C[C@@H](O)CN1

How the values were obtained:
[1] = test system: SARS-CoV-2 spike protein pseudovirus; assay: microbe, parasite or virus in culture; type: cell-based
VSV-G pseudovirus = assay: microbe, parasite or virus in culture; type: cell-based, vesicular stomatitis virus; conditions: for activity at 10 µM: Pseudovirus, 293T/ACE2, read-out: % Infectivity of VSV-G pv
SARS-CoV-1-S pseudovirus = type: cell-based
MERS-CoV-S pseudovirus = type: cell-based
in vitro = conditions: human
293T-ACE2 cells = conditions: for % viability (Table S3): 10 µM
[2] = predictions for the uncharged form; ref https://go.drugbank.com; cited from earlier work
[3] = values for the salts; ref chemical supplier datasheets; cited from earlier work
[4] = test system: SARS-CoV-2 spike protein pseudovirus; type: cell-based
[5] = test system: SARS-CoV-2 spike protein pseudovirus; type: cell-based; remark: listed apart in the source
[6] = test system: SARS-CoV-2 spike protein pseudovirus; type: cell-based; remark: listed apart in the source
[7] = 293T/ACE2, 48 h, read-out: % Infectivity of SARS-2-Spike pv
[8] = 10 µM; read-out: % infectivity (Table S3, kite-shaped molecules in order of inhibition)
[9] = 293T/ACE2, read-out: IC50 of SARS-CoV-2-S pseudovirus infectivity

| Compound | activity at 10 µM [1, 7] | activity at 10 µM (VSV-G pseudovirus) | viability (in vitro; % Viability of SARS-2-Spike pv) | further results |
| --- | --- | --- | --- | --- |
| CCOC(=O)C1OC1C(=O)NC(CC(C)C)C(=O)NCCC(C)C (stereo not drawn) [E64d] | 9% | 105% | 95% | inhibition of SARS-CoV-1-S pseudovirus infection (SARS-CoV-1-S pseudovirus): inhibited; inhibition of MERS-CoV-S pseudovirus infection (MERS-CoV-S pseudovirus): inhibited |
| Cc1cncc(CN2CCC(=C3c4ccc(Cl)cc4CCc4cccnc43)CC2)c1.O=C(O)/C=C/C(=O)O [Rupatadine Fumarate] | – | – | – | activity [1, 8]: 38%; % viability (Table S3) (293T-ACE2 cells): 74% |
| C[C@@H]1CCO[C@H]2Cn3cc(C(=O)NCc4ccc(F)cc4F)c(=O)c(O)c3C(=O)N12 [S/GSK1349572] | – | – | – | activity [1, 8]: 16.2%; % viability (Table S3) (293T-ACE2 cells): 94% |
| CN(C)CCC=C1c2ccccc2CCc2ccccc21 [amitriptyline HCl] | 9% | 80% | 112% | IC50 [1, 9]: 4.98 µM; water solubility a [2]: 14 µM; water solubility b [3]: 99 mM |
| CCOC(=O)C1=C(COCCN)NC(C)=C(C(=O)OC)C1c1ccccc1Cl (stereo not drawn) [amlodipine besylate] | – | – | – | % Infectivity of SARS-2-Spike pv [1]: 19%; % Infectivity of VSV-G pv (VSV-G pseudovirus): 100%; % Viability of SARS-2-Spike pv (293T-ACE2 cells; human): 116% |
| CCCCCOc1ccc(-c2ccc(-c3ccc(C(=O)N[C@H]4C[C@@H](O)[C@@H](O)NC(=O)[C@@H]5[C@@H](O)[C@@H](C)CN5C(=O)[C@H]([C@@H](C)O)NC(=O)[C@H]([C@H](O)[C@@H](O)c5ccc(O)cc5)NC(=O)[C@@H]5C[C@@H](O)CN5C(=O)[C@H]([C@@H](C)O)NC4=O)cc3)cc2)cc1 [anidulafungin] ({pTerphenylCO(4''-OnC5H11)}-[Orn(4R-OH,5R-OH)]T[Hyp][hTyr(3S-OH,4S-OH)]T[Pro(3S-OH,4S-Me)]; lactam 1-C) | 19% | 125% | 109% | – |
| CN1CC2c3ccccc3Oc3ccc(Cl)cc3C2C1 (stereo not drawn) [asenapine] | 4% | 71% | 92% | combination effect with hydroxychloroquine on SARS-CoV-2 pseudovirus infectivity [1]: additive effects; water solubility a [2]: 78 µM (≈ 22.3 µg/mL); water solubility b [3]: 9 mM |
| CN1CCCC(n2nc(Cc3ccc(Cl)cc3)c3ccccc3c2=O)CC1 (stereo not drawn) [azelastine HCl] | 4% | 81% | 98% | IC50 [1, 9]: 4.84 µM |
| CC[C@H]1OC(=O)[C@H](C)[C@@H](O[C@H]2C[C@@](C)(OC)[C@@H](O)[C@H](C)O2)[C@H](C)[C@@H](O[C@@H]2O[C@H](C)C[C@H](N(C)C)[C@H]2O)[C@](C)(O)C[C@@H](C)CN(C)[C@H](C)[C@@H](O)[C@]1(C)O [azithromycin dihydrate] | 4% | 100% | 94% | – |
| CC[C@H]1OC(=O)[C@H](C)[C@@H](O[C@H]2C[C@@](C)(OC)[C@@H](O)[C@H](C)O2)[C@H](C)[C@@H](O[C@@H]2O[C@H](C)C[C@H](N(C)C)[C@H]2O)[C@](C)(O)C[C@@H](C)CN(C)[C@H](C)[C@@H](O)[C@]1(C)O [azithromycin] | – | – | – | % Infectivity of SARS-2-Spike pv [1]: 3%; IC50 [1, 9]: 0.78 µM; % Infectivity of VSV-G pv (VSV-G pseudovirus): 93%; % Viability of SARS-2-Spike pv (293T-ACE2 cells; human): 100% |
| Cc1c(-c2ccc(O)cc2)n(Cc2ccc(OCCN3CCCCCC3)cc2)c2ccc(O)cc12.Cl [bazedoxifene Hcl] | – | – | – | % Infectivity of SARS-2-Spike pv [1]: 3%; % Infectivity of VSV-G pv (VSV-G pseudovirus): 13%; % Viability of SARS-2-Spike pv (293T-ACE2 cells): 88% |
| CN1[C@@H]2CC[C@H]1C[C@@H](OC(c1ccccc1)c1ccccc1)C2 [benztropine mesylate] | 10% | 93% | 96% | – |
| COc1cc2c(Oc3ccc4[nH]c(C)cc4c3F)ncnc2cc1OCCCN1CCCC1 [cediranib (AZD217), cediranib] | 5% | 42% | 85% | – |
| CCN(CC)CCCC(C)Nc1ccnc2cc(Cl)ccc12 (stereo not drawn) [chloroquine diphosphate] | 1% | 83% | – | IC50 [1, 9]: 0.32 µM; inhibition of SARS-CoV-1-S pseudovirus infection (SARS-CoV-1-S pseudovirus): inhibited; inhibition of MERS-CoV-S pseudovirus infection (MERS-CoV-S pseudovirus): inhibited; inhibition of SARS-CoV-2 pseudovirus infection of A549-ACE2 cells [4]: failed to inhibit; viability (in vitro): 123% |
| CN(C)CCCN1c2ccccc2Sc2ccc(Cl)cc21 [chlorpromazine HCl] | 6% | 58% | 65% | IC50 [1, 9]: 3.79 µM; % infectivity, drug added at 1 hpi (post-entry) [5]: 35%; water solubility a [2]: 12 µM; water solubility b [3]: 141 mM |
| CN(C)CCCN1c2ccccc2CCc2ccc(Cl)cc21 [clomipramine HCl] | 9% | 78% | 115% | – |
| Cc1nc2c([nH]1)-c1ccccc1N(C(=O)c1ccc(NC(=O)c3ccccc3-c3ccccc3)cc1)CC2.Cl [conivaptan hcl] | – | – | – | activity [1, 8]: 52%; % viability (Table S3) (293T-ACE2 cells): 102% |
| CN(C)CCC=C1c2ccccc2C=Cc2ccccc21 [cyclobenzaprine HCl] | 9% | 81% | 101% | – |
| CN1CCC(=C2c3ccccc3C=Cc3ccccc32)CC1 [cyproheptadine HCl] | 17% | 92% | 94% | – |

| Compound | activity at 10 µM [1, 7] | activity at 10 µM (VSV-G pseudovirus) | viability (in vitro; % Viability of SARS-2-Spike pv) | further results |
| --- | --- | --- | --- | --- |
| CCc1cnn2c(NCc3ccc[n+]([O-])c3)cc(N3CCCC[C@H]3CCO)nc12 [dinaciclib] | 0% | 1% | 55% | – |
| CN1CCC(OC(c2ccccc2)c2ccccc2)CC1 [diphenylpyraline HCl] | 15% | 108% | 106% | – |
| Cc1ccc(NC(=O)c2ccc(CN3CCN(C)CC3)cc2)cc1Nc1nccc(-c2cccnc2)n1 [imatinib mesylate, imatinib] | – | – | – | % Infectivity of SARS-2-Spike pv [1]: 1%; % Viability of SARS-2-Spike pv (293T-ACE2 cells; human): 22% |
| Cc1ccc(NC(=O)c2ccc(CN3CCN(C)CC3)cc2)cc1Nc1nccc(-c2cccnc2)n1 [imatinib] | – | – | – | % Infectivity of SARS-2-Spike pv [1]: 81%; % Viability of SARS-2-Spike pv (293T-ACE2 cells; human): 103% |
| CN(C)CCCN1c2ccccc2CCc2ccccc21 [imipramine] | 16% | 84% | 99% | – |
| CNCCCC12CCC(c3ccccc31)c1ccccc12 [maprotiline HCl] | 9% | 89% | 99% | water solubility a [2]: 150 µM; water solubility b [3]: 159 mM |
| CC(C)COc1ccc(CNC(=O)N(Cc2ccc(F)cc2)C2CCN(C)CC2)cc1 [pimavanserin] | 3% | 72% | 70% | – |
| CN1CCC(=C2c3ccccc3CCc3sccc32)CC1 [pizotifen malate] | 7% | 77% | 106% | IC50 [1, 9]: 3.46 µM; % infectivity of SARS-CoV-2 pseudovirus in Calu3 cells [6]: 13%; water solubility a [2]: 16 µM |
| CN1CCN(CCCN2c3ccccc3Sc3ccc(Cl)cc32)CC1 [prochlorperazine] | 16% | 80% | 94% | – |
| CC(CN1c2ccccc2Sc2ccccc21)N(C)C (stereo not drawn) [promethazine HCl] | 11% | 107% | 99% | – |
| OCCOCCN1CCN(C2=Nc3ccccc3Sc3ccccc32)CC1 [quetiapine] | – | – | – | activity ([1]; read-out: % infectivity (Table S3, kite-shaped molecules in order of inhibition); 10 µM): 113%; % viability (Table S3) (293T-ACE2 cells; human): 101% |
| O=C(c1ccc(OCCN2CCCCC2)cc1)c1c(-c2ccc(O)cc2)sc2cc(O)ccc12 [raloxifene HCl] | 5% | 65% | 92% | IC50 [1, 9]: 5.76 µM |
| O=C(O[C@H]1CN2CCC1CC2)N1CCc2ccccc2[C@@H]1c1ccccc1 [solifenacin succinate] | 12% | 86% | – | viability (in vitro): 99% |
| CN1CCN(c2nc(C3=C(c4c[nH]c5ccccc45)C(=O)NC3=O)c3ccccc3n2)CC1 [sotrastaurin] | 8% | 76% | 89% | IC50 [1, 9]: 6.89 µM; inhibition of SARS-CoV-1-S pseudovirus infection (SARS-CoV-1-S pseudovirus): significant inhibition; inhibition of MERS-CoV-S pseudovirus infection (MERS-CoV-S pseudovirus): non-significant inhibition |
| CC/C(=C(\c1ccccc1)c1ccc(OCCN(C)C)cc1)c1ccccc1 [tamoxifen citrate] | 10% | 81% | 107% | – |
| CCOC(=O)c1ccc(C#Cc2ccc3c(c2)C(C)(C)CCS3)nc1 [tazarotene] | 225% | 102% | 107% | – |
| CN1CCN(CCCN2c3ccccc3Sc3ccc(C(F)(F)F)cc32)CC1 [trifluoperazine 2HCl] | 5% | 80% | 83% | IC50 [1, 9]: 3.3 µM; inhibition of SARS-CoV-1-S pseudovirus infection (SARS-CoV-1-S pseudovirus): significant inhibition; inhibition of MERS-CoV-S pseudovirus infection (MERS-CoV-S pseudovirus): non-significant inhibition |
| CC(CN(C)C)CN1c2ccccc2CCc2ccccc21 (stereo not drawn) [trimipramine maleate] | 14% | 95% | 92% | IC50 [1, 9]: 5.35 µM; % infectivity of SARS-CoV-2 pseudovirus in Calu3 cells [6]: 8%; water solubility a [2]: 88 µM; water solubility b [3]: 5 mM |
| heparin sodium | – | – | – | % Infectivity of SARS-2-Spike pv [1]: 88%; % Viability of SARS-2-Spike pv (293T-ACE2 cells): 98% |
